In the supplement of paper PMC10307832:

What was measured:
Assay in all cases: relative viability (nuclei count vs DMSO), 5 days (fraction); higher = more cells survive
Motesanib + Linsitinib = compound: CC1(C)CNc2cc(NC(=O)c3cccnc3NCc3ccncc3)ccc21 [Motesanib] + C[C@]1(O)C[C@@H](c2nc(-c3ccc4ccc(-c5ccccc5)nc4c3)c3c(N)nccn32)C1 [Linsitinib] (partner 1 µM)
Summary of the method: (§1)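 Nuclei were stained with Hoechst during a one-step fixation (final 0.05% Triton X-100, 1% formaldehyde, 1 ug/ml Hoechst) carried out 5 days after dosing, then counted on 4× images. The cells, lung cancer lines in 1536-well plates, had been dosed by pin tool the day after seeding with one drug alone or a fixed anchor-drug dose plus five library-drug doses (not always all listed) in √10 steps. Relative viability is the nuclei count in treated wells divided by that in vehicle wells, and each value is the median of duplicate plates.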

[1] = compound: C[C@@]1(C(=O)Nc2ccc(F)nc2)CCCN1c1nc(Nc2cc(C3CC3)n[nH]2)c2cccn2n1 + CS(=O)(=O)CCNCc1ccc(-c2ccc3ncnc(Nc4ccc(OCc5cccc(F)c5)c(Cl)c4)c3c2)o1 [Lapatinib] (partner 2 µM)
Summary of the method: as §1

Motesanib + Pemetrexed = compound: CC1(C)CNc2cc(NC(=O)c3cccnc3NCc3ccncc3)ccc21 [Motesanib] + Nc1nc2[nH]cc(CCc3ccc(C(=O)N[C@@H](CCC(=O)O)C(=O)O)cc3)c2c(=O)[nH]1 [Pemetrexed] (partner 0.2 µM)
Summary of the method: as §1

Motesanib + Dasatinib = compound: CC1(C)CNc2cc(NC(=O)c3cccnc3NCc3ccncc3)ccc21 [Motesanib] + Cc1nc(Nc2ncc(C(=O)Nc3c(C)cccc3Cl)s2)cc(N2CCN(CCO)CC2)n1 [Dasatinib] (partner 0.075 µM)
Summary of the method: as §1

Cell Line	relative viability (Motesanib + Linsitinib; first compound 0.01 µM)	relative viability (Motesanib + Linsitinib; first compound 0.03162 µM)	relative viability (Motesanib + Linsitinib; first compound 0.1 µM)	relative viability (Motesanib + Linsitinib; first compound 0.3162 µM)	relative viability (Motesanib + Linsitinib; first compound 1 µM)	relative viability ([1]; first compound 0.04 µM)	relative viability ([1]; first compound 0.1265 µM)	relative viability ([1]; first compound 0.4 µM)	relative viability ([1]; first compound 1.265 µM)	relative viability (Motesanib + Pemetrexed; first compound 0.01 µM)	relative viability (Motesanib + Pemetrexed; first compound 0.03162 µM)	relative viability (Motesanib + Pemetrexed; first compound 0.1 µM)	relative viability (Motesanib + Pemetrexed; first compound 0.3162 µM)	relative viability (Motesanib + Pemetrexed; first compound 1 µM)	relative viability (Motesanib + Dasatinib; first compound 0.01 µM)	relative viability (Motesanib + Dasatinib; first compound 0.03162 µM)	relative viability (Motesanib + Dasatinib; first compound 0.1 µM)	relative viability (Motesanib + Dasatinib; first compound 0.3162 µM)	relative viability (Motesanib + Dasatinib; first compound 1 µM)
HCC-44	0.7	0.653	0.694	0.696	0.6	0.894	0.794	0.647	0.688	0.656	0.653	0.788	0.724	0.605					
NCI-H1299	0.989	0.966	1.02	0.977	1.07	1.01	1.03	0.964	0.967										
NCI-H727	0.3	0.329	0.304	0.292	0.15	0.692	0.371	0.247	0.294						0.39	0.241	0.404	0.448	0.34
LCLC-103H		1.1	1.12	1.09	1.02					0.458	0.435	0.429	0.505	0.458	0.432	0.444	0.44	0.504	0.52
ABC-1	1.01	0.891	0.752	0.587	0.774	1.14	1.59	0.752	0.633						0.518	0.544	0.605	0.65	0.619
NCI-H1650						0.894	0.679	0.656	0.402	0.357	0.367	0.33	0.349	0.425	0.374	0.337	0.33	0.329	0.298
ChaGo-K-1										0.262	0.249	0.227	0.235	0.237	0.55	0.535	0.544	0.696	0.691
SW 900										0.459	0.416	0.356	0.301	0.303	0.545	0.714	0.858	0.611	0.461
A549	0.532	0.633	0.571	0.624	0.773	0.648	0.477	0.348	0.103										
NCI-H2342										0.8	0.748	0.795	0.794	0.912	0.271	0.312	0.336	0.279	0.317
NCI-H2170						0.245	0.258	0.283	0.271	0.258	0.255	0.257	0.269	0.253	0.533	0.507	0.463	0.511	0.57
NCI-H1623															0.481	0.567	0.562	0.556	0.538
NCI-H522										1.01	1.05	0.955	0.844	1.03	0.754	0.835	0.921	0.862	0.864
IA-LM	0.514	0.627	0.594	0.482	0.46	0.702	0.935	0.647	0.601										
EBC-1	0.829	0.941	0.978	0.959	0.937	0.208	0.19	0.239	0.205										
